Experimental data as given in patent US20110165232A1, “Use of Opioid Antagonists for the Preparation of a Medicament in the Treatment of Retinal Degenerative Diseases” (AK KIMYA ITHALAT-IHRACAT VE SANAYII ANONIM SIRKETI, priority 2008, published 2011).

Assays:
beta-endorphins = details: normal volunteers, LDN at bedtime, in the following days; cited from earlier work
[1] = system: age related macular degeneration; assay: Case reports: low dose naltrexone regimen in patients with age related macular degeneration; type: in vivo, human; details: elderly person with age related macular degeneration, 4.5 mg per day at bedtime
Text: An […] has had age related macular degeneration for the last 11 years of […] life, experiencing progressive blurring in the center of […] vision. The degeneration led to loss of central vision […] from many daily activities. It […] very difficult to lead an independent life.
An […] has had age related macular degeneration for the last 10 years […]. […] experienced a loss of central vision […] to differentiate the colors of the surrounding objects and letters in the newspapers. […] […] began to differentiate the colors of the objects shown to […]; […] started to differentiate the big printed letters in the newspapers.

human tumors = details: laboratory studies, low dose naltrexone methodology; cited from earlier work
Met-enkephalin = details: animal research, Ref 7; cited from earlier work

O=C1CC[C@@]2(O)[C@H]3Cc4ccc(O)c5c4[C@@]2(CCN3CC2CC2)[C@H]1O5 [naltrexone]
levels of beta-endorphins in blood (beta-endorphins): higher levels of beta-endorphins in their blood | quality of vision [1]: the quality of their vision started to improve | time after initiation of therapy until vision began to improve [1]: Approximately 50 days | quality of vision ([1]; listed as low dose naltrexone): improvement in the quality of their vision | time after initiation of therapy until vision began to improve ([1]; listed as low dose naltrexone): 50 to 60 days | inhibition of human tumors (human tumors): inhibition of different human tumors | Met-enkephalin levels (Met-enkephalin): marked increase in Met-enkephalin levels
